Data on 5 molecules can be found in US20110070269A1, “LIPOPOLYSACCHARIDE ISOLATED FROM PYRULARIA TISSUE AND/OR PYRULARIA-ASSOCIATED BACTERIA AND USES THEREOF” (THERAPRO TECHNOLOGIES, INC., priority 2009, published 2011).

The subject of data set [1] is Balb/C mice. The data set can be described thus: In vivo neutropenia model (sub-lethal cyclophosphamide). The arrangement: species or system mouse. To be noted: day five. How it is done:
Eighteen to twenty-four hours later (day 1), control mice received an injection of saline and the PyEx group received a single dose of PyEx (20 μg/mouse). Mice were bled sequentially via the retro-orbital sinus or tail vein at various times thereafter. Blood was collected in heparinized capillary tubes.
For determination of total versus white cells, blood was diluted into Isoton II (Beckman-Coulter, Fullerton, Calif.). Total cells and white cells were counted using a Model ZM Coulter counter (Beckman-Coulter, Fullerton, Calif.). White cell counts were determined following treatment of whole blood with a RBC lytic reagent (Zap-Oglobin, Beckman-Coulter, Fullerton, Calif.). Blood granulocytes and myelocytes were quantitated by means of an EPICS-XL™ flow cytometry after lysis of red cells.
To more clearly determine what populations of cells were stimulated by treatment with PyEx, in a similar experiment blood and bone marrow cells were collected and analyzed for total blood granulocytes and myelocytes. […] PyEx-1 (20 μg/mouse) was given to mice 24 hours after administration of CP. Blood from PyEx-1 treated experimental and saline treated control mice was collected with heparinized capillary tubes five days after CP administration. Following lysis of red cells, the remaining cells were analyzed by means of an EPICS-XL™ flow cytometer (Beckman-Coulter, Fullerton, Calif.). […]

Data set [2] has as its system Balb/C mice. Nature of the data set: Prevention of drug-induced (melphalan) toxic death. The data set is classed as in vivo, mouse. To be noted: melphalan 100 mg/kg i.p. alone. As to the method:
The effect of PyEx upon myelocyte stimulation was also observed in vivo as prevention of drug-induced myelosuppression. […] A separate group received melphalan (100 mg/kg, i.p.) and PyEx-1 (10 μg/mouse, subcutaneously). PyEx-1 was given immediately after or as late as 18 hours after melphalan administration, and every 48 hours thereafter.

Another data set relates to murine bone marrow cells. Nature of the data set: Bone marrow activation assay (flow cytometry, percent of cells activated). The data set is classed as cell-based, mouse. The settings on record: 3 mM. How it is done:
Bone marrow was flushed from the femurs of Balb/C mice with RPMI medium. Cells were collected by centrifugation and the pellet treated with 1 mL of red cell lysis buffer (as described above) for five minutes at 25° C., followed by dilution with 12 mL of RPMI media. Cells were washed by two cycles of centrifugation and resuspension in RPMI. On the final wash, cells were counted using a hemocytometer and the final pellet was resuspended to 4×10^6 cells/mL with RPMI media for use in activation assays, which were quantitated by flow cytometric analysis (described below).
Cells (200 μL, prepared as described above) were collected after gentle trituration to resuspend cells. Each aliquot was diluted with 1 mL PBS, centrifuged to pellet the cells, and the supernatant liquid was removed. The washed cells were sequentially stained in the dark at 4° C. for 15 minutes with anti-CD16/32 to prevent non-specific labeling, then for 45 minutes with either anti-Mac-1-FITC×anti-Mac-1-PE or with Gr-1-FITC×Mac-1-PE. Cells were washed once at 4° C. with 1 mL of PBS and then resuspended in 1 mL of PBS. Human cells were labeled with anti-Mac-1 as above or with anti-Mac-1-FITC×anti-CD14. […] Approximately 15-20×10^3 cells were counted for each analysis. Percent of cells activated was determined as: […]
On the technique in general: A flow cytometer gives signals particle by particle.

A further data set concerns bone marrow cells. The data set can be described thus: Bone marrow cell viability (propidium iodide exclusion). Type of data set: cell-based. The settings on record: mouse, 3 mM. As to the method:
Cells (200 μL, prepared as described above) were collected after gentle trituration to resuspend cells. Each aliquot was diluted with 1 mL PBS, centrifuged to pellet the cells, and the supernatant liquid was removed. The washed cells were sequentially stained in the dark at 4° C. for 15 minutes with anti-CD16/32 to prevent non-specific labeling, then for 45 minutes with either anti-Mac-1-FITC×anti-Mac-1-PE or with Gr-1-FITC×Mac-1-PE. Cells were washed once at 4° C. with 1 mL of PBS and then resuspended in 1 mL of PBS. Human cells were labeled with anti-Mac-1 as above or with anti-Mac-1-FITC×anti-CD14. A Coulter EPICS-XL™ flow cytometer was used to enumerate dual, positively-staining control sub-populations and detection of nascent stimulated sub-populations. Activated sub-populations, which labeled with more intensity along the y-axis in Gr-I-FITC×Mac-1-PE, were designated as Mac-1^+hi. Control unactivated cells that also stained positively in both dimensions were designated, Mac-1^+lo. Dead cells were eliminated from analysis by prior staining with propidium iodide. Approximately 15-20×10^3 cells were counted for each analysis. Percent of cells activated was determined as:
Over 15×10^3 cells were analyzed for each sample. Bone marrow cell viability among all samples including the untreated control was 70-76% as determined by propidium iodide exclusion.

A short description of data set [3]: Physical analysis: stability of the immunostimulatory/mitogenic activity. Type of data set: physicochemical. To be noted: proteinase K 50 μg/ml, 10 mM Tris pH 8.0, 10 mM EDTA, 0.5% SDS, 56° C., 30 minutes. As to the method: A mitogenic assay was used as a measure of immunostimulation. For the mitogen assay, isolated cells were diluted to 1.5×10^6 cells/mL. Aliquots of cells (200 μL/well) were incubated in sterile 96-well plates for 24 to 48 hours prior to the addition of 1 μCi/well of [^3H]thymidine. Radiolabeled DNA was collected on glass fiber filters by means of an Inotech cell harvester (Rockville, Md.) and associated radioactivity was determined by means of an Inotech radiometric instrument or by scintillation counting of individual filters. TLF-D, a proprietary reagent, was utilized at 10 μg/ml to amplify the mitogenic activity of Pyrularia extract (PyEx) in a synergistic fashion.

The next data set has as its system human bone marrow cells. Nature of the data set: Activation of human bone marrow (Mac-1 x CD14 flow cytometry). Type of data set: cell-based. To be noted: 5 ng/mL, fresh marrow from normal donor. As to the method: Human bone marrow was provided by the Bone Marrow Transplantation Unit, University of Utah. Experiments were initiated upon obtaining fresh marrow from normal donors. Whole marrow was treated as described above for murine marrow samples. Following incubation for 24 to 36 hours with PyEx or other agents as described, cells were stained with anti-Mac-1-FITC×anti-CD14-PE. Cells were analyzed using a Coulter EPICS-XL™ flow cytometer (Beckman-Coulter, Fullerton, Calif.). Activated populations were identified by positive staining with Mac-1×CD14 (designated Mac-1^+, CD14^+).

For the molecule `O=P1(N(CCCl)CCCl)NCCCO1` (stereo not drawn) [Cyclophosphamide], the “total WBC restoration, % of the difference between the nadir value and the control value” with Balb/C mice [1] (CP 200 mg/kg alone) came out at 45%. Further, the “Percentage of Granulocytes in Control” value in the data set on Balb/C mice [1] (cyclophosphamide 200 mg/kg alone, blood) amounted to 1%.
In the case of `N[C@@H](Cc1ccc(N(CCCl)CCCl)cc1)C(=O)O` [Melphalan, melphalan], the figures for the “Average time of death” value in the data set on Balb/C mice [2] and in the data set on Balb/C mice [2] (listed as melphalan) were “day 7” and “eight”, respectively. Besides, in the data set on Balb/C mice [2], the “Drug related deaths/# in group” value is 3/6.
Molecule `CC(=O)CCCCn1c(=O)c2c(ncn2C)n(C)c1=O` [pentoxifylline] came in with an Activation in the data set with murine bone marrow cells of 7.54%. Further, the Viability in the data set on bone marrow cells worked out at 61.5%.
Turning to concanavalin A, the “effect of proteinase K treatment on mitogenic activity” value in data set [3] is “completely inactivate”.
As to “rhGM-CSF: Recombinant human granulocyte macrophage-colony stimulating factor”, the “activated sub-population (Mac-1+, CD14+), % of total cells” value with human bone marrow cells is given as 9%.
